Assay results from patent US9180120B2, “Substituted N-phenethyltriazoloneacetamides and use thereof” (Bayer Intellectual Property GmbH, priority 2010, dated 2015).

Assays:
human V2 receptor = human V2 receptor (Homo sapiens (Human), UniProt P30518); assay: Cellular in vitro assay for determining the vasopressin receptor activity (aequorin luminescence, CHO cells, antagonism of [Arg8]-vasopressin); assay type: cell-based; details: cell line transfected with the human V2 receptor; agonist [Arg8]-vasopressin; read-out: IC50 hV2
Chain of human V2 receptor (P30518 whole entry): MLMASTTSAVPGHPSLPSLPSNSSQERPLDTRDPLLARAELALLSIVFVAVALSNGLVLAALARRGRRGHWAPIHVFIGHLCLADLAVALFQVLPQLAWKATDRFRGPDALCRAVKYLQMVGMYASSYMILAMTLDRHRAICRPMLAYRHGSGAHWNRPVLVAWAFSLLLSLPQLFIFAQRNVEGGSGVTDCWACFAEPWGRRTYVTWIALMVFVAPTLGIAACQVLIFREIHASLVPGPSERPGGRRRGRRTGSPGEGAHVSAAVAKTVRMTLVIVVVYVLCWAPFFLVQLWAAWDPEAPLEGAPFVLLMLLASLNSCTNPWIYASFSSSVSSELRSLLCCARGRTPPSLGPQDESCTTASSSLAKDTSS
From the text: (§1) • EDTA ethylenediaminetetraacetic acid • DMEM Dulbecco's Modified Eagle Medium • FCS foetal calf serum • HEPES 4-(2-hydroxyethyl)-1-piperazineethanesulphonic acid • SmGM Smooth Muscle Cell Growth Media • Tris-HCl 2-amino-2-(hydroxymethyl)-1,3-propanediol hydrochloride B-1. Cellular in vitro Assay for Determining the Vasopressin Receptor Activity
(§2) The identification of agonists and antagonists of the V1a and V2 vasopressin receptors from humans and rats and also the quantification of the activity of the compounds of the invention takes place using recombinant cell lines. […] In addition, the cells are stably transfected with the human or rat V1a or V2 receptors.
(§3) On the day before the assay, the cells are plated out in culture medium (DMEM, 10% FCS, 2 mM glutamine, 10 mM HEPES) in 384-well microtitre plates and kept in a cell incubator (96% humidity, 5% v/v CO2, 37° C.). On the day of the assay, the culture medium is replaced by a Tyrode solution (140 mM NaCl, 5 mM KCl, 1 mM MgCl2, 2 mM CaCl2, 20 mM glucose, 20 mM HEPES), which additionally contains the cofactor coelenterazine (50 μM), and the microtitre plate is then incubated for a further 3-4 hours. The test substances in various concentrations are placed for 10 to 20 minutes in the wells of the microtitre plate before the agonist [Arg^8]-vasopressin is added, and the resulting light signal is measured immediately in the luminometer.

human V1a receptor = human V1a receptor (Homo sapiens (Human), UniProt P37288); assay: as above; assay type: cell-based; details: cell line transfected with the human V1a receptor; agonist [Arg8]-vasopressin; read-out: IC50 hV1a
Chain of human V1a receptor (P37288 whole entry): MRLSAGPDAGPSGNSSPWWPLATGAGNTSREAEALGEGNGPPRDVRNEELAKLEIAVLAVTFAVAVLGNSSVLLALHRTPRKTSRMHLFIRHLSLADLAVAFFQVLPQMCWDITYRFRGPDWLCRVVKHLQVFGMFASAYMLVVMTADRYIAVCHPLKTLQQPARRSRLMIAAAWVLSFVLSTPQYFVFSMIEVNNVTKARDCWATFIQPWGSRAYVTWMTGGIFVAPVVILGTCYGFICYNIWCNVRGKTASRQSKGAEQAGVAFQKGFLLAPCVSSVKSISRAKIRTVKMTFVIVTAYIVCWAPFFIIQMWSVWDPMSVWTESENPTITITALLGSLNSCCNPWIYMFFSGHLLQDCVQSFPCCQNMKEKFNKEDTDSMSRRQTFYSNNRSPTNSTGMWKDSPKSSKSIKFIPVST
From the text: as §1, §2, §3

IC50 (human V2 receptor) [nM] | IC50 (human V1a receptor) [nM] | Compound
5 | 63 | NC(=O)OCC(CNC(=O)Cn1nc(-c2ccc(Cl)cc2)n(C[C@H](O)C(F)(F)F)c1=O)c1cccc(C(F)(F)F)c1 (single isomer, unassigned) [Example 9]
13 | 19 | O=CNC(CNC(=O)Cn1nc(-c2ccc(Cl)cc2)n(C[C@H](O)C(F)(F)F)c1=O)c1cccc(C(F)(F)F)c1 (stereo partly drawn) [Example 36, 2-{3-(4-Chlorophenyl)-5-oxo-4-[(2S)-3,3,3-trifluoro-2-hydroxypropyl]-4,5-dihydro-1H-1,2,4-triazol-1-yl}-N-{2-formamido-2-[3-(trifluoromethyl)phenyl]ethyl}acetamide]
1200 | 51 | COCCn1c(-c2ccc(Cl)s2)nn(CC(=O)NCC(NC(=O)OC(C)(C)C)c2ccccc2C(F)(F)F)c1=O (racemic) [Example 66, tert-Butyl {2-({[3-(5-chloro-2-thienyl)-4-(2-methoxyethyl)-5-oxo-4,5-dihydro-1H-1,2,4-triazol-1-yl]acetyl}amino)-1-[2-(trifluoromethyl)phenyl]ethyl}carbamate]
 | 12 | NC(=O)OCC(CNC(=O)Cn1nc(-c2ccc(Cl)cc2)n(C[C@H](O)C(F)(F)F)c1=O)c1ccccc1Cl (single isomer, unassigned) [Example 6]
300 | 18 | CC(C)(C)OC(=O)NC(CNC(=O)Cn1nc(-c2ccc(Cl)s2)n(Cc2ccccc2F)c1=O)c1ccccc1C(F)(F)F (racemic) [Example 67, tert-Butyl {2-({[3-(5-chloro-2-thienyl)-4-(2-fluorobenzyl)-5-oxo-4,5-dihydro-1H-1,2,4-triazol-1-yl]acetyl}amino)-1-[2-(trifluoromethyl)phenyl]ethyl}carbamate]
9 | 24 | CCNC(=O)OCC(CNC(=O)Cn1nc(-c2ccc(Cl)cc2)n(C[C@H](O)C(F)(F)F)c1=O)c1cccc(C(F)(F)F)c1 (stereo partly drawn) [Example 10, 3-[({3-(4-Chlorophenyl)-5-oxo-4-[(2S)-3,3,3-trifluoro-2-hydroxypropyl]-4,5-dihydro-1H-1,2,4-triazol-1-yl}acetyl)amino]-2-[3-(trifluoromethyl)phenyl]propyl ethylcarbamate]
22 | 10 | NC(=O)OC(CNC(=O)Cn1nc(-c2ccc(Cl)cc2)n(Cc2ccccc2F)c1=O)c1ccccc1Cl (racemic) [Example 57, 1-(2-Chlorophenyl)-2-({[3-(4-chlorophenyl)-4-(2-fluorobenzyl)-5-oxo-4,5-dihydro-1H-1,2,4-triazol-1-yl]acetyl}amino)ethyl carbamate]
2 | 5 | NC(=O)OC(CNC(=O)Cn1nc(-c2ccc(Cl)cc2)n(C[C@H](O)C(F)(F)F)c1=O)c1ccccc1Cl (stereo partly drawn) [Example 47, 1-(2-Chlorophenyl)-2-[({3-(4-chlorophenyl)-5-oxo-4-[(2S)-3,3,3-trifluoro-2-hydroxypropyl]-4,5-dihydro-1H-1,2,4-triazol-1-yl}acetyl)amino]ethyl carbamate]
70 | 4 | CC(C)(C)OC(=O)NC(CNC(=O)Cn1nc(-c2ccc(Cl)cc2)n(C[C@H](O)C(F)(F)F)c1=O)c1ccccc1C(F)(F)F (stereo partly drawn) [Example 13, tert-Butyl {2-[({3-(4-chlorophenyl)-5-oxo-4-[(2S)-3,3,3-trifluoro-2-hydroxypropyl]-4,5-dihydro-1H-1,2,4-triazol-1-yl}acetyl)amino]-1-[2-(trifluoromethyl)phenyl]ethyl}carbamate]
5 | 8 | CS(=O)(=O)NC(CNC(=O)Cn1nc(-c2ccc(Cl)cc2)n(C[C@H](O)C(F)(F)F)c1=O)c1ccccc1Cl (stereo partly drawn) [Example 25, N-{2-(2-Chlorophenyl)-2-[(methylsulphonyl)amino]ethyl}-2-{3-(4-chlorophenyl)-5-oxo-4-[(2S)-3,3,3-trifluoro-2-hydroxypropyl]-4,5-dihydro-1H-1,2,4-triazol-1-yl}acetamide]
15 | 4 | O=C(Cn1nc(-c2ccc(Cl)cc2)n(C[C@H](O)C(F)(F)F)c1=O)N[C@@H](CO)Cc1cccc(C(F)(F)F)c1 [Example 53, 2-{3-(4-Chlorophenyl)-5-oxo-4-[(2S)-3,3,3-trifluoro-2-hydroxypropyl]-4,5-dihydro-1H-1,2,4-triazol-1-yl}-N-{(2R)-1-hydroxy-3-[3-(trifluoromethyl)phenyl]propan-2-yl}acetamide]
8 | 17 | NC(=O)NC(CNC(=O)Cn1nc(-c2ccc(Cl)cc2)n(C[C@H](O)C(F)(F)F)c1=O)c1ccccc1Cl (single isomer, unassigned) [Example 33]
3500 | 130 | COCCn1c(-c2ccc(Cl)s2)nn(CC(=O)NCC(NS(C)(=O)=O)c2ccccc2C(F)(F)F)c1=O (racemic) [Example 69, 2-[3-(5-Chloro-2-thienyl)-4-(2-methoxyethyl)-5-oxo-4,5-dihydro-1H-1,2,4-triazol-1-yl]-N-{2-[(methylsulphonyl)amino]-2-[2-(trifluoromethyl)phenyl]ethyl}acetamide]
16 | 1 | NC(=O)OCC(CNC(=O)Cn1nc(-c2ccc(Cl)cc2)n(C[C@H](O)C(F)(F)F)c1=O)c1ccccc1C(F)(F)F (single isomer, unassigned) [Example 2]
11 |  | CC(C)(C)OC(=O)NC(CNC(=O)Cn1nc(-c2ccc(Cl)cc2)n(C[C@H](O)C(F)(F)F)c1=O)c1cccc(Cl)c1Cl (single isomer, unassigned) [Example 19]
48 | 14 | NC(=O)OC(CNC(=O)Cn1nc(-c2ccc(Cl)cc2)n(CCC(F)(F)F)c1=O)c1ccccc1Cl (racemic) [Example 59, 1-(2-Chlorophenyl)-2-({[3-(4-chlorophenyl)-5-oxo-4-(3,3,3-trifluoropropyl)-4,5-dihydro-1H-1,2,4-triazol-1-yl]acetyl}amino)ethyl carbamate]
3 | 8 | NC(=O)OC(CNC(=O)Cn1nc(-c2ccc(Cl)cc2)n(C[C@H](O)C(F)(F)F)c1=O)c1ccccc1C(F)(F)F (single isomer, unassigned) [Example 42]
10 | 25 | CC(=O)NC(C)(CNC(=O)Cn1nc(-c2ccc(Cl)cc2)n(C[C@H](O)C(F)(F)F)c1=O)c1cccc(C(F)(F)F)c1 (single isomer, unassigned) [Example 39]
2 | 7 | NC(=O)OC(CNC(=O)Cn1nc(-c2ccc(Cl)cc2)n(C[C@H](O)C(F)(F)F)c1=O)c1cccc(Cl)c1Cl (single isomer, unassigned) [Example 52]
